# Test results from PubChem BioAssay AID1963856 (Molecular Pharmacology Branch, DTP, NCI, 2024).
# Calls of active or inactive are those of the source. How the source made its calls: active means viability on the fitted dose curve at most 10% of control; inactive means the rest.
# Tested on: LG0567-F671-PDC KRAS tumor spheroid viability
# Assay: Anticancer human tumor LG0567-F671-PDC patient-derived lung adenocarcinoma cell line growth inhibition [KRAS2]
# Conditions: spheroids with HUVEC and MSC; for IC50: curve of first compound; for viability, T/C: stronger effect = lower value
# Outline: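 KRAS-mutant tumor cells were grown as spheroids with HUVEC endothelial cells and human MSCs as stroma. Targeted agents were tested alone and with KRAS pathway inhibitors. Doses started at or near clinical Cmax, or 10 microM, descending half-log.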
# [1] = second compound 0.1 µM, first compound 0.000316 µM
# [2] = second compound 0.1 µM, first compound 0.001 µM
# [3] = second compound 0.1 µM, first compound 0.00316 µM
# [4] = second compound 0.1 µM, first compound 0.01 µM
# [5] = second compound 0.1 µM, first compound 0.0316 µM
# [6] = second compound 0.316 µM, first compound 0.000316 µM
# [7] = second compound 0.316 µM, first compound 0.001 µM
# [8] = second compound 0.316 µM, first compound 0.00316 µM
# [9] = second compound 0.316 µM, first compound 0.01 µM
# [10] = second compound 0.316 µM, first compound 0.0316 µM
# [11] = second compound 1 µM, first compound 0.000316 µM
# [12] = second compound 1 µM, first compound 0.001 µM
# [13] = second compound 1 µM, first compound 0.00316 µM
# [14] = second compound 1 µM, first compound 0.01 µM
# [15] = second compound 1 µM, first compound 0.0316 µM
# [16] = second compound 3.16 µM, first compound 0.000316 µM
# [17] = second compound 3.16 µM, first compound 0.001 µM
# [18] = second compound 3.16 µM, first compound 0.00316 µM
# [19] = second compound 3.16 µM, first compound 0.01 µM
# [20] = second compound 3.16 µM, first compound 0.0316 µM
# [21] = second compound 10 µM, first compound 0.000316 µM
# [22] = second compound 10 µM, first compound 0.001 µM
# [23] = second compound 10 µM, first compound 0.00316 µM
# [24] = second compound 10 µM, first compound 0.01 µM
# [25] = second compound 10 µM, first compound 0.0316 µM
# [26] = second compound 0.1 µM, first compound 0.1 µM
# [27] = second compound 0.1 µM, first compound 0.316 µM
# [28] = second compound 0.1 µM, first compound 1 µM
# [29] = second compound 0.1 µM, first compound 3.16 µM
# [30] = second compound 0.316 µM, first compound 0.1 µM
# [31] = second compound 0.316 µM, first compound 0.316 µM
# [32] = second compound 0.316 µM, first compound 1 µM
# [33] = second compound 0.316 µM, first compound 3.16 µM
# [34] = second compound 3.16 µM, first compound 0.1 µM
# [35] = second compound 3.16 µM, first compound 0.316 µM
# [36] = second compound 3.16 µM, first compound 1 µM
# [37] = second compound 3.16 µM, first compound 3.16 µM
# [38] = second compound 10 µM, first compound 0.1 µM
# [39] = second compound 10 µM, first compound 0.316 µM
# [40] = second compound 10 µM, first compound 1 µM
# [41] = second compound 10 µM, first compound 3.16 µM
# [42] = second compound 1 µM, first compound 0.1 µM
# [43] = second compound 0.1 µM, first compound 10 µM
# [44] = second compound 0.316 µM, first compound 10 µM
# [45] = second compound 1 µM, first compound 0.316 µM
# [46] = second compound 1 µM, first compound 1 µM
# [47] = second compound 1 µM, first compound 3.16 µM
# [48] = second compound 1 µM, first compound 10 µM
# [49] = second compound 3.16 µM, first compound 10 µM
# [50] = second compound 10 µM, first compound 10 µM
# 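Wherever IC50 is given: drug exposure lasted seven days after spheroids formed for three days.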
# 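Wherever viability, T/C is given: drug exposure lasted seven days after spheroids formed for three days; 100% = DMSO vehicle control viability.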
smiles,measurement,setting,value
CC(=O)Nc1cccc(-n2c(=O)n(C3CC3)c(=O)c3c(Nc4ccc(I)cc4F)n(C)c(=O)c(C)c32)c1 + CC1OCC2(CCN(c3cnc(Sc4ccnc(N)c4Cl)c(N)n3)CC2)C1N,IC50,second compound 0.1 µM,< 0.1 nM
same,IC50,second compound 0.316 µM,< 0.1 nM
same,IC50,second compound 1 µM,< 0.1 nM
same,IC50,second compound 3.16 µM,< 0.1 nM
same,IC50,second compound 10 µM,< 0.1 nM
same,"viability, T/C","second compound 0.1 µM, first compound 0.0001 µM",53.7%
same,"viability, T/C",[1],44.6%
same,"viability, T/C",[2],49.4%
same,"viability, T/C",[3],44.7%
same,"viability, T/C",[4],22.7%
same,"viability, T/C",[5],7.91%
same,"viability, T/C","second compound 0.316 µM, first compound 0.0001 µM",37.1%
same,"viability, T/C",[6],31.2%
same,"viability, T/C",[7],25.6%
same,"viability, T/C",[8],21.9%
same,"viability, T/C",[9],14.9%
same,"viability, T/C",[10],7.83%
same,"viability, T/C","second compound 1 µM, first compound 0.0001 µM",22.4%
same,"viability, T/C",[11],21.8%
same,"viability, T/C",[12],17.6%
same,"viability, T/C",[13],8.6%
same,"viability, T/C",[14],6.42%
same,"viability, T/C",[15],3.01%
same,"viability, T/C","second compound 3.16 µM, first compound 0.0001 µM",14.7%
same,"viability, T/C",[16],8.03%
same,"viability, T/C",[17],2.89%
same,"viability, T/C",[18],1.92%
same,"viability, T/C",[19],1.41%
same,"viability, T/C",[20],3.95%
same,"viability, T/C","second compound 10 µM, first compound 0.0001 µM",5.94%
same,"viability, T/C",[21],2.29%
same,"viability, T/C",[22],2.96%
same,"viability, T/C",[23],1.63%
same,"viability, T/C",[24],1.31%
same,"viability, T/C",[25],2.49%
CC(=O)OC12COC1CC(O)C1(C)C(=O)C(O)C3=C(C)C(OC(=O)C(O)C(NC(=O)OC(C)(C)C)c4ccccc4)CC(O)(C(OC(=O)c4ccccc4)C21)C3(C)C (stereo not drawn) + CC1OCC2(CCN(c3cnc(Sc4ccnc(N)c4Cl)c(N)n3)CC2)C1N,IC50,second compound 0.1 µM,< 10 nM
same,IC50,second compound 0.316 µM,< 10 nM
same,IC50,second compound 3.16 µM,< 10 nM
same,IC50,second compound 10 µM,< 10 nM
same,"viability, T/C",[4],41.6%
same,"viability, T/C",[5],39.4%
same,"viability, T/C",[26],38.7%
same,"viability, T/C",[27],40.4%
same,"viability, T/C",[28],48%
same,"viability, T/C",[29],38.6%
same,"viability, T/C",[9],26.7%
same,"viability, T/C",[10],26.7%
same,"viability, T/C",[30],24.9%
same,"viability, T/C",[31],22.1%
same,"viability, T/C",[32],28.1%
same,"viability, T/C",[33],20.6%
same,"viability, T/C",[19],14.7%
same,"viability, T/C",[20],12.3%
same,"viability, T/C",[34],10.3%
same,"viability, T/C",[35],10.6%
same,"viability, T/C",[36],11.9%
same,"viability, T/C",[37],10.3%
same,"viability, T/C",[24],14.9%
same,"viability, T/C",[25],9.36%
same,"viability, T/C",[38],11.2%
same,"viability, T/C",[39],9.93%
same,"viability, T/C",[40],12.9%
same,"viability, T/C",[41],9.85%
CN(C)C/C=C/C(=O)Nc1cc2c(Nc3ccc(F)c(Cl)c3)ncnc2cc1O[C@H]1CCOC1 + CC1OCC2(CCN(c3cnc(Sc4ccnc(N)c4Cl)c(N)n3)CC2)C1N,IC50,second compound 0.1 µM,4.99 nM
same,IC50,second compound 0.316 µM,< 0.316 nM
same,IC50,second compound 1 µM,> 100 nM
same,IC50,second compound 3.16 µM,< 0.316 nM
same,IC50,second compound 10 µM,< 0.316 nM
same,"viability, T/C",[1],55.9%
same,"viability, T/C",[2],51.9%
same,"viability, T/C",[3],50.8%
same,"viability, T/C",[4],52.2%
same,"viability, T/C",[5],43.3%
same,"viability, T/C",[26],49.4%
same,"viability, T/C",[6],44.1%
same,"viability, T/C",[7],40.5%
same,"viability, T/C",[8],43.1%
same,"viability, T/C",[9],30.6%
same,"viability, T/C",[10],29.9%
same,"viability, T/C",[30],32.7%
same,"viability, T/C",[11],106%
same,"viability, T/C",[12],84.5%
same,"viability, T/C",[13],96.2%
same,"viability, T/C",[14],78.9%
same,"viability, T/C",[15],59%
same,"viability, T/C",[42],69.3%
same,"viability, T/C",[16],19.9%
same,"viability, T/C",[17],15.2%
same,"viability, T/C",[18],16.2%
same,"viability, T/C",[19],21.2%
same,"viability, T/C",[20],18.4%
same,"viability, T/C",[34],21.6%
same,outcome,[21],inactive
same,outcome,[22],inactive
same,"viability, T/C",[23],15.9%
same,outcome,[24],inactive
same,"viability, T/C",[25],13.4%
same,"viability, T/C",[38],12.9%
COC(=O)c1ccc2c(C(=Nc3ccc(N(C)C(=O)CN4CCN(C)CC4)cc3)c3ccccc3)c(O)[nH]c2c1 + CC1OCC2(CCN(c3cnc(Sc4ccnc(N)c4Cl)c(N)n3)CC2)C1N,IC50,second compound 0.1 µM,> 10000 nM
same,IC50,second compound 0.316 µM,< 31.6 nM
same,IC50,second compound 1 µM,< 31.6 nM
same,IC50,second compound 3.16 µM,< 31.6 nM
same,IC50,second compound 10 µM,< 31.6 nM
same,"viability, T/C",[5],55.5%
same,"viability, T/C",[26],50.5%
same,"viability, T/C",[27],47.3%
same,"viability, T/C",[28],57.5%
same,"viability, T/C",[29],57.8%
same,"viability, T/C",[43],51.8%
same,"viability, T/C",[10],29.1%
same,"viability, T/C",[30],29.2%
same,"viability, T/C",[31],26.4%
same,"viability, T/C",[32],39.5%
same,"viability, T/C",[33],36.3%
same,"viability, T/C",[44],37.3%
same,"viability, T/C",[15],25.5%
same,"viability, T/C",[42],23.4%
same,"viability, T/C",[45],23.6%
same,"viability, T/C",[46],30.6%
same,"viability, T/C",[47],38.2%
same,"viability, T/C",[48],34%
same,"viability, T/C",[20],19.5%
same,"viability, T/C",[34],20.1%
same,"viability, T/C",[35],19%
same,"viability, T/C",[36],24.1%
same,"viability, T/C",[37],32.5%
same,"viability, T/C",[49],27.8%
same,"viability, T/C",[25],13.7%
same,"viability, T/C",[38],13.9%
same,"viability, T/C",[39],13.2%
same,"viability, T/C",[40],19.5%
same,"viability, T/C",[41],23.6%
same,"viability, T/C",[50],26.7%
O=C(c1cc(Cc2n[nH]c(=O)c3ccccc23)ccc1F)N1CCN(C(=O)C2CC2)CC1 + CC1OCC2(CCN(c3cnc(Sc4ccnc(N)c4Cl)c(N)n3)CC2)C1N,IC50,second compound 0.1 µM,> 10000 nM
same,IC50,second compound 0.316 µM,< 31.6 nM
same,IC50,second compound 1 µM,< 31.6 nM
same,IC50,second compound 3.16 µM,< 31.6 nM
same,IC50,second compound 10 µM,< 31.6 nM
same,"viability, T/C",[5],63.8%
same,"viability, T/C",[26],54%
same,"viability, T/C",[27],60.3%
same,"viability, T/C",[28],59.7%
same,"viability, T/C",[29],54.4%
same,"viability, T/C",[43],53.2%
same,"viability, T/C",[10],37.9%
same,"viability, T/C",[30],35.5%
same,"viability, T/C",[31],32.3%
same,"viability, T/C",[32],32.9%
same,"viability, T/C",[33],33.5%
same,"viability, T/C",[44],38.2%
same,outcome,[15],inactive
same,"viability, T/C",[42],40%
same,"viability, T/C",[45],35.5%
same,"viability, T/C",[46],29.8%
same,"viability, T/C",[47],32.8%
same,"viability, T/C",[48],28.6%
same,"viability, T/C",[20],20.9%
same,"viability, T/C",[34],20.8%
same,"viability, T/C",[35],24.8%
same,"viability, T/C",[36],26%
same,"viability, T/C",[37],23.9%
same,"viability, T/C",[49],23.8%
same,"viability, T/C",[25],10.2%
same,"viability, T/C",[38],11%
same,"viability, T/C",[39],12.2%
same,"viability, T/C",[40],11.8%
same,"viability, T/C",[41],14.2%
same,"viability, T/C",[50],17.4%
